Data reported in patent US20090311217A1, “3-SUBSTITUTED-1H-INDOLE COMPOUNDS, THEIR USE AS MTOR KINASE AND PI3 KINASE INHIBITORS, AND THEIR SYNTHESES” (priority 2008, published 2009).
Where two headings read alike, the source gives them in different places.

Tests used:
Format in all cases: biochemical
PI3K-alpha = PI3K-alpha (Homo sapiens, UniProt P42336); test: PI3K-alpha fluorescence polarization assay; conditions: read-out: PI3Kα Avg. IC50
PI3K-gamma = PI3K-gamma (Homo sapiens, UniProt P48736); test: PI3K-gamma fluorescence polarization assay
Summary of the method: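 Each isoform (5 ng) phosphorylated 2.5 μM diC8-PI(4,5)P2 at 25 μM ATP for one hour at 25° C in the presence of inhibitor. Reactions were then stopped with EDTA, and product was detected by fluorescence polarization using a GST-GRP1 PH domain and a BODIPY-TMR-labelled IP4 tracer.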

human TOR = target: T1, human TOR (Homo sapiens, UniProt P42345); test: mTOR enzyme assay (DELFIA, His6-S6K substrate); conditions: read-out: mTOR Kinase Avg. IC50
T1 construct: FLAG

PI3K-gamma, sequence (P48736 whole entry, species assumed, the tested form may be a part, canonical isoform): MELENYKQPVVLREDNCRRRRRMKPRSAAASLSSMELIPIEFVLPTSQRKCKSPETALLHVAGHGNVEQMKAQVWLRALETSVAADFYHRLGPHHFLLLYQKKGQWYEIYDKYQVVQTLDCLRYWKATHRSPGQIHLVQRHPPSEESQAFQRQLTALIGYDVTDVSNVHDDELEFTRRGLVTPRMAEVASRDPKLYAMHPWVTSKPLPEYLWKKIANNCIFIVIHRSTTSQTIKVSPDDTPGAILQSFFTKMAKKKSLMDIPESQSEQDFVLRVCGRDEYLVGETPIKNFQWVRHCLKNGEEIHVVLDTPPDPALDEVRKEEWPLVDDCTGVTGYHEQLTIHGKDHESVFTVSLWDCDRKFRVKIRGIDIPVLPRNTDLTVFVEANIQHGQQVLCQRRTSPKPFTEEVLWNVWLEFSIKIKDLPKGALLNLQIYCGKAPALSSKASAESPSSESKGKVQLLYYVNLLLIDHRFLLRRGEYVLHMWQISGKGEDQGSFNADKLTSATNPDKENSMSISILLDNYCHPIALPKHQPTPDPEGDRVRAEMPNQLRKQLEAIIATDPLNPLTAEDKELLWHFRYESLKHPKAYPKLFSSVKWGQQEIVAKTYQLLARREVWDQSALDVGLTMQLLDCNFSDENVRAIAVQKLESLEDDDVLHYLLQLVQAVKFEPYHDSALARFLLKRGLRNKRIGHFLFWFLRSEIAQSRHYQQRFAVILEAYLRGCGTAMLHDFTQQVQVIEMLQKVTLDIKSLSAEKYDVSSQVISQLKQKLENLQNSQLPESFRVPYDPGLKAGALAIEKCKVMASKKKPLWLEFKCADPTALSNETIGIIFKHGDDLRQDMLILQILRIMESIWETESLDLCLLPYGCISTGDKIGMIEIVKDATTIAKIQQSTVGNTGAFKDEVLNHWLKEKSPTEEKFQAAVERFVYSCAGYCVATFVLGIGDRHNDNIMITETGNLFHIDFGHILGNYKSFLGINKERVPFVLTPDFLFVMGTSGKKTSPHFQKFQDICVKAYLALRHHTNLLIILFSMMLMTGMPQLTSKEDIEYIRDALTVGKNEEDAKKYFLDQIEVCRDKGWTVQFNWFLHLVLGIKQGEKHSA
PI3K-alpha, sequence (P42336 whole entry, species assumed): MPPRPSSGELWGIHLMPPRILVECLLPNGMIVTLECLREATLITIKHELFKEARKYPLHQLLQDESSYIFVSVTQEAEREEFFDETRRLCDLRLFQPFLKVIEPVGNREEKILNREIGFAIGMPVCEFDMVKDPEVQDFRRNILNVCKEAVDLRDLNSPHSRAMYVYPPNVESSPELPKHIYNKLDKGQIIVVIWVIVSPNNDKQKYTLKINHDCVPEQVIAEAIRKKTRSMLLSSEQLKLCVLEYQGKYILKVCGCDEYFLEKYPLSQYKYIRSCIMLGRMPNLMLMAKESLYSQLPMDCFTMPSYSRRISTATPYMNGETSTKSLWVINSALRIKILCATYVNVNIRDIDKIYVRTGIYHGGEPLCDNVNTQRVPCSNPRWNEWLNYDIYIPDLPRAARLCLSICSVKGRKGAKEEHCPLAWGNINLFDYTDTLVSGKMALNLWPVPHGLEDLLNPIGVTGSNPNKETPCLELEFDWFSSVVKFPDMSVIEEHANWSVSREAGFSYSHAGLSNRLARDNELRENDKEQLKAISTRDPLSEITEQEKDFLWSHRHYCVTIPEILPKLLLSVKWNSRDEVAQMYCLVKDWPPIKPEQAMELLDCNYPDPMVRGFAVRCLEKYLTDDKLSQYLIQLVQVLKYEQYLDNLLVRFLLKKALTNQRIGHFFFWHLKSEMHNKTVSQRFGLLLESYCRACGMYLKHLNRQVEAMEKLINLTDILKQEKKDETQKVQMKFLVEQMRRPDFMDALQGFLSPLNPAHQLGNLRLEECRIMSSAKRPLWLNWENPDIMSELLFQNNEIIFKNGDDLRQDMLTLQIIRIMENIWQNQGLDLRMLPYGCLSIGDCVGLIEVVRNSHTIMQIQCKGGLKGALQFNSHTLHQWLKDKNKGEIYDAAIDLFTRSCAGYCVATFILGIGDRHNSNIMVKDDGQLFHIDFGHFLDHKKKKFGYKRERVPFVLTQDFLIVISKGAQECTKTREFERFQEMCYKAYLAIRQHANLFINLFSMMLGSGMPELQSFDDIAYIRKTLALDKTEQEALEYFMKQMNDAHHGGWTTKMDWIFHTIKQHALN
PI3K-alpha, sequence (P27986 whole entry partner, species assumed): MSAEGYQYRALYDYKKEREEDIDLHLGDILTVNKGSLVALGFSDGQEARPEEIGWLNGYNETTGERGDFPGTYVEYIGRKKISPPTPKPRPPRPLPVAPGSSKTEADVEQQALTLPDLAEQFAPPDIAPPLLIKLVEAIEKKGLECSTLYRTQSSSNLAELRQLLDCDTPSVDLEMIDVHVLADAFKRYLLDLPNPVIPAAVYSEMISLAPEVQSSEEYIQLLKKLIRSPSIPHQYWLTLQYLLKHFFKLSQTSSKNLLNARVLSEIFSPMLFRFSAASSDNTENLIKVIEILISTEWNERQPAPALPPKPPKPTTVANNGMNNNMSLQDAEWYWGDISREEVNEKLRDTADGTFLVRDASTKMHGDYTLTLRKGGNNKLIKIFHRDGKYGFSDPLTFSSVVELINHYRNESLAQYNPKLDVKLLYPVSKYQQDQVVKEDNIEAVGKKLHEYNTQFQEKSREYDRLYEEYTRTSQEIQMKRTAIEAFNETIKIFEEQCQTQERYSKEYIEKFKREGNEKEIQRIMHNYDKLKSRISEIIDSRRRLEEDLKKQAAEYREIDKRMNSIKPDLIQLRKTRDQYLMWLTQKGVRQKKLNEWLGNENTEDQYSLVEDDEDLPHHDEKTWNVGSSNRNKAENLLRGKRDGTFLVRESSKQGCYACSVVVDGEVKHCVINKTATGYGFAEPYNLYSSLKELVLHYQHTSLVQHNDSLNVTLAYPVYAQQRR

For `COc1ccc2[nH]c(-c3c(C)nn(C)c3C)c(/C=C3\Oc4ccc(NC(=O)Nc5ccc(C(=O)N6CCN(C)C(C)C6)cc5)cc4C3=O)c2c1` (stereo not drawn) [Compound 703, 1-{4-[(3,4-dimethylpiperazin-1-yl)carbonyl]phenyl}-3-[(2Z)-2-{[5-methoxy-2-(1,3,5-trimethyl-1H-pyrazol-4-yl)-1H-indol-3-yl]methylidene}-3-oxo-2,3-dihydro-1-benzofuran-5-yl]urea], the IC50 (PI3K-alpha) was 0.3 nM, the IC50 (PI3K-gamma; PI3Kγ Avg. IC50) was 2.5 nM and the IC50 (human TOR) was 3 nM.

With `Cn1cc(C=C2Oc3cc(O)cc(O)c3C2=O)c2cc(Br)ccc21` [Example 248, 2-[(5-bromo-1-methyl-1H-indol-3-yl)methylene]-4,6-dihydroxy-1-benzofuran-3(2H)-one] the IC50 (PI3K-alpha) was 1040 nM, the IC50 (PI3K-gamma; PI3Kγ Avg. IC50) was > 10000 nM and the IC50 (human TOR) was > 20000 nM.

In the case of `CNC(=O)Nc1ccc2c(c1)C(=O)/C(=C/c1c(-c3c(C)n[nH]c3C)[nH]c3c(F)cc(OC)cc13)O2` [Compound 714, 1-[(2Z)-2-{[2-(3,5-dimethyl-1H-pyrazol-4-yl)-7-fluoro-5-methoxy-1H-indol-3-yl]methylidene}-3-oxo-2,3-dihydro-1-benzofuran-5-yl]-3-methylurea], the IC50 (PI3K-alpha) is reported as 0.55 nM, the IC50 (PI3K-gamma; PI3Kγ Avg. IC50) is reported as 3.7 nM and the IC50 (human TOR) is reported as < 1 nM.

Work on `Cn1cc(/C=C2\Oc3cc(O)cc(O)c3C2=O)c2c(-c3ccsc3)cccc21` [Example 374, (2Z)-4,6-Dihydroxy-2-{[1-methyl-4-(3-thienyl)-1H-indol-3-yl]methylene}-1-benzofuran-3(2H)-one] yielded an IC50 (PI3K-alpha) of 2610 nM, an IC50 (PI3K-gamma; PI3Kγ Avg. IC50) of 4200 nM and an IC50 (human TOR) of 110 nM.

In the case of `CN(C)c1ccc(-c2cccc3c2c(/C=C2\Oc4cc(O)cc(O)c4C2=O)cn3C)cc1` [Example 385, (2Z)-2-({4-[4-(Dimethylamino)phenyl]-1-methyl-1H-indol-3-yl}methylene)-4,6-dihydroxy-1-benzofuran-3(2H)-one], the IC50 (PI3K-alpha) is reported as 2790 nM, the IC50 (PI3K-gamma; PI3Kγ Avg. IC50) is reported as 7630 nM and the IC50 (human TOR) is reported as 18 nM.

`O=C1C(=Cc2c[nH]c3c(Cl)cccc23)Oc2cc(O)cc(O)c21` [Example 173, 2-[(7-chloro-1H-indol-3-yl)methylene]-4,6-dihydroxy-1-benzofuran-3(2H)-one] was tested, and the IC50 (PI3K-alpha) was 766 nM, the IC50 (PI3K-gamma; PI3Kγ Avg. IC50) was > 10000 nM and the IC50 (human TOR) was 17000 nM.

With `O=C1/C(=C/c2c[nH]c3ccc(Br)cc23)Oc2c1ccc(O)c2O` [Example 58, (2Z)-2-[(5-bromo-1H-indol-3-yl)methylene]-6,7-dihydroxy-1-benzofuran-3(2H)-one] the IC50 (PI3K-alpha) was 310 nM, the IC50 (PI3K-gamma; PI3Kγ Avg. IC50) was 3530 nM and the IC50 (human TOR) was 15000 nM.

For `CCn1c(C)c(/C=C2\Oc3ccc(NC(=O)Nc4ccc(NCCN(C)C)cc4)cc3C2=O)c2cc(OC)ccc21` [Compound 678, 1-(4-{[2-(dimethylamino)ethyl]amino}phenyl)-3-{(2Z)-2-[(1-ethyl-5-methoxy-2-methyl-1H-indol-3-yl)methylidene]-3-oxo-2,3-dihydro-1-benzofuran-5-yl}urea], the IC50 (PI3K-alpha) was 3 nM, the IC50 (PI3K-gamma; PI3Kγ Avg. IC50) was 14.5 nM and the IC50 (human TOR) was 130 nM.

Molecule `COc1ccc2c(c1)c(/C=C1\Oc3cc(O)cc(O)c3C1=O)c(C1CC1)n2CCO` [Example 313, (2Z)-2-{[2-Cyclopropyl-1-(2-hydroxyethyl)-5-methoxy-1H-indol-3-yl]methylene}-4,6-dihydroxy-1-benzofuran-3(2H)-one] has an IC50 (PI3K-alpha) of 3 nM, an IC50 (PI3K-gamma; PI3Kγ Avg. IC50) of 16.5 nM and an IC50 (human TOR) of 0.53 nM.

`Cn1cc(/C=C2\Oc3cc(O)cc(O)c3C2=O)c2c(-c3ccc(C(N)=O)cc3)cccc21` [Example 377, 4-{3-[(Z)-(4,6-Dihydroxy-3-oxo-1-benzofuran-2(3H)-ylidene)methyl]-1-methyl-1H-indol-4-yl}benzamide] was tested, and the IC50 (PI3K-alpha) was 496 nM, the IC50 (PI3K-gamma; PI3Kγ Avg. IC50) was 4070 nM and the IC50 (human TOR) was 7 nM.

Work on `CNC(=O)Nc1cc(C)c2c(c1)C(=O)/C(=C/c1c(C)n(CCN3CCN(C)CC3)c3ccc(OC)cc13)O2` [Compound 662, 1-[(2Z)-2-({5-methoxy-2-methyl-1-[2-(4-methylpiperazin-1-yl)ethyl]-1H-indol-3-yl}methylidene)-7-methyl-3-oxo-2,3-dihydro-1-benzofuran-5-yl]-3-methylurea] yielded an IC50 (PI3K-alpha) of 81.5 nM, an IC50 (PI3K-gamma; PI3Kγ Avg. IC50) of 3070 nM and an IC50 (human TOR) of 1480 nM.

`CN(C)CCCn1c(-c2ccccc2)c(C=C2Oc3cc(O)cc(O)c3C2=O)c2ccccc21` [Example 156, 2-({1-[3-(dimethylamino)propyl]-2-phenyl-1H-indol-3-yl}methylene)-4,6-dihydroxy-1-benzofuran-3(2H)-one] was tested, and the IC50 (PI3K-alpha) was 1290 nM, the IC50 (PI3K-gamma; PI3Kγ Avg. IC50) was 6000 nM and the IC50 (human TOR) was 1600 nM.

With `CCn1c(C)c(/C=C2\Oc3ccc(NC(=O)Nc4ccc(N(C)CCCCN(C)C)cc4)cc3C2=O)c2cc(OC)ccc21` [Compound 675, 1-(4-{[4-(dimethylamino)butyl](methyl)amino}phenyl)-3-{(2Z)-2-[(1-ethyl-5-methoxy-2-methyl-1H-indol-3-yl)methylidene]-3-oxo-2,3-dihydro-1-benzofuran-5-yl}urea] the IC50 (PI3K-alpha) was 9 nM, the IC50 (PI3K-gamma; PI3Kγ Avg. IC50) was 40 nM and the IC50 (human TOR) was 370 nM.

Work on `CNC(=O)Nc1ccc2c(c1)C(=O)/C(=C/c1c(-c3cnn(C)c3)[nH]c3c(F)cc(OC)cc13)O2` [Compound 718, 1-[(2Z)-2-{[7-fluoro-5-methoxy-2-(1-methyl-1H-pyrazol-4-yl)-1H-indol-3-yl]methylidene}-3-oxo-2,3-dihydro-1-benzofuran-5-yl]-3-methylurea] yielded an IC50 (PI3K-alpha) of 2.75 nM, an IC50 (PI3K-gamma; PI3Kγ Avg. IC50) of 9.5 nM and an IC50 (human TOR) of 2 nM.

Work on `CNC(=S)Nc1ccc2c(c1)C(=O)/C(=C/c1c(C)n(CCN3CCN(C)CC3)c3ccc(OC)cc13)O2` [Compound 647, 1-[(2Z)-2-({5-methoxy-2-methyl-1-[2-(4-methylpiperazin-1-yl)ethyl]-1H-indol-3-yl}methylene)-3-oxo-2,3-dihydro-1-benzofuran-5-yl]-3-methylthiourea] yielded an IC50 (PI3K-alpha) of 10 nM, an IC50 (PI3K-gamma; PI3Kγ Avg. IC50) of 4850 nM and an IC50 (human TOR) of 1260 nM.

`CN(C)CCCNC(=O)c1ccc(-c2cccc3c2c(/C=C2\Oc4cc(O)cc(O)c4C2=O)cn3C)cc1` [Example 387, 4-{3-[(Z)-(4,6-Dihydroxy-3-oxo-1-benzofuran-2(3H)-ylidene)methyl]-1-methyl-1H-indol-4-yl}-N-[3-(dimethylamino)propyl]benzamide] was tested, and the IC50 (PI3K-alpha) was 3520 nM, the IC50 (PI3K-gamma; PI3Kγ Avg. IC50) was 4590 nM and the IC50 (human TOR) was 340 nM.

Molecule `COc1ccc2c(c1)c(/C=C1\Oc3ccc(NC(=O)Nc4ccc(N(C)C)cc4)cc3C1=O)c(C)n2CCN1CCN(C)CC1` [Compound 633, 1-[4-(dimethylamino)phenyl]-3-[(2Z)-2-({5-methoxy-2-methyl-1-[2-(4-methylpiperazin-1-yl)ethyl]-1H-indol-3-yl}methylidene)-3-oxo-2,3-dihydro-1-benzofuran-5-yl]urea] has an IC50 (PI3K-alpha) of 3.87 nM, an IC50 (PI3K-gamma; PI3Kγ Avg. IC50) of 1910 nM and an IC50 (human TOR) of 225 nM.

In the case of `COC(=O)Nc1ccc2c(c1)OC(=Cc1cn(CCCN(C)C)c3ccc(OC)cc13)C2=O` [Example 405, Methyl [2-({1-[3-(dimethylamino)propyl]-5-methoxy-1H-indol-3-yl}methylene)-3-oxo-2,3-dihydro-1-benzofuran-6-yl]carbamate], the IC50 (PI3K-alpha) is reported as > 10000 nM, the IC50 (PI3K-gamma; PI3Kγ Avg. IC50) is reported as > 10000 nM and the IC50 (human TOR) is reported as > 20000 nM.

`CNC(=O)Nc1ccc2c(c1)C(=O)/C(=C/c1c(-c3c(C)nn(C)c3C)n(CCCC#N)c3ccc(OC)cc13)O2` [Compound 634, 1-[(2Z)-2-{[1-(3-cyanopropyl)-5-methoxy-2-(1,3,5-trimethyl-1H-pyrazol-4-yl)-1H-indol-3-yl]methylene}-3-oxo-2,3-dihydro-1-benzofuran-5-yl]-3-methylurea] was tested, and the IC50 (PI3K-alpha) was 2.1 nM, the IC50 (PI3K-gamma; PI3Kγ Avg. IC50) was 16.5 nM and the IC50 (human TOR) was 19 nM.

Molecule `COc1ccc2[nH]cc(C=C3Oc4cccc(O)c4C3=O)c2c1` [Example 78, 4-hydroxy-2-[(5-methoxy-1H-indol-3-yl)methylene]-1-benzofuran-3(2H)-one] has an IC50 (PI3K-alpha) of 516 nM, an IC50 (PI3K-gamma; PI3Kγ Avg. IC50) of 1200 nM and an IC50 (human TOR) of 2900 nM.

`COc1ccc2c(c1)c(/C=C1\Oc3ccc(NC(=O)Nc4cccnc4)cc3C1=O)c(C)n2CCN1CCN(C)CC1` [Compound 632, 1-[(2Z)-2-({5-methoxy-2-methyl-1-[2-(4-methylpiperazin-1-yl)ethyl]-1H-indol-3-yl}methylidene)-3-oxo-2,3-dihydro-1-benzofuran-5-yl]-3-pyridin-3-ylurea] showed an IC50 (PI3K-alpha) of 1.9 nM, an IC50 (PI3K-gamma; read-out: PI3Kγ Avg. IC50) of 246 nM and an IC50 (human TOR) of 49 nM.

Work on `CCn1c(C)c(/C=C2\Oc3ccc(NC(=O)Nc4ccc(CCN(C)C)cc4)cc3C2=O)c2cc(OC)ccc21` [Compound 670, 1-{4-[2-(dimethylamino)ethyl]phenyl}-3-{(2Z)-2-[(1-ethyl-5-methoxy-2-methyl-1H-indol-3-yl)methylidene]-3-oxo-2,3-dihydro-1-benzofuran-5-yl}urea] yielded an IC50 (PI3K-alpha) of 3.5 nM, an IC50 (PI3K-gamma; PI3Kγ Avg. IC50) of 20.3 nM and an IC50 (human TOR) of 133 nM.

In the case of `Cn1cc(/C=C2\Oc3cc(O)cc(O)c3C2=O)c2c(-c3ccc([N+](=O)[O-])cc3)cccc21` [Example 420, (2Z)-4,6-Dihydroxy-2-{[1-methyl-4-(4-nitrophenyl)-1H-indol-3-yl]methylene}-1-benzofuran-3(2H)-one], the IC50 (PI3K-alpha) is reported as 708 nM, the IC50 (PI3K-gamma; PI3Kγ Avg. IC50) is reported as > 10000 nM and the IC50 (human TOR) is reported as 31.5 nM.

`Cn1cc(/C=C2\Oc3cccc(O)c3C2=O)c2c(-c3ccccc3)cccc21` [Example 400, (2Z)-4-Hydroxy-2-[(1-methyl-4-phenyl-1H-indol-3-yl)methylene]-1-benzofuran-3(2H)-one] was tested, and the IC50 (PI3K-alpha) was > 10000 nM, the IC50 (PI3K-gamma; PI3Kγ Avg. IC50) was > 10000 nM and the IC50 (human TOR) was > 19500 nM.

For `O=C1C(=Cc2c(-c3ccccc3)n(CCN3CCCC3)c3ccccc23)Oc2cc(O)cc(O)c21` [Example 157, 4,6-dihydroxy-2-{[2-phenyl-1-(2-pyrrolidin-1-ylethyl)-1H-indol-3-yl]methylene}-1-benzofuran-3(2H)-one], the IC50 (PI3K-alpha) was 1520 nM, the IC50 (PI3K-gamma; PI3Kγ Avg. IC50) was 2430 nM and the IC50 (human TOR) was 2500 nM.

`CC(=O)c1ccc(-c2cccc3c2c(/C=C2\Oc4cc(O)cc(O)c4C2=O)cn3C)cc1` [Example 372, (2Z)-2-{[4-(4-Acetylphenyl)-1-methyl-1H-indol-3-yl]methylene}-4,6-dihydroxy-1-benzofuran-3(2H)-one] gave an IC50 (PI3K-alpha) of 738 nM, an IC50 (PI3K-gamma; PI3Kγ Avg. IC50) of 3000 nM and an IC50 (human TOR) of 26 nM.
